Source: ChEMBL document CHEMBL5042543, “Bridged Piperidine Analogues of a High Affinity Naphthalene-Based P2Y14R Antagonist” (J Med Chem, 2022)
In brackets after ≈: the same amount, converted by molar mass.

Key:
[1] = target: T1, P2Y purinoceptor 14 (Homo sapiens, UniProt Q15391); experiment: cell-based
T1 sequence (Q15391 whole entry): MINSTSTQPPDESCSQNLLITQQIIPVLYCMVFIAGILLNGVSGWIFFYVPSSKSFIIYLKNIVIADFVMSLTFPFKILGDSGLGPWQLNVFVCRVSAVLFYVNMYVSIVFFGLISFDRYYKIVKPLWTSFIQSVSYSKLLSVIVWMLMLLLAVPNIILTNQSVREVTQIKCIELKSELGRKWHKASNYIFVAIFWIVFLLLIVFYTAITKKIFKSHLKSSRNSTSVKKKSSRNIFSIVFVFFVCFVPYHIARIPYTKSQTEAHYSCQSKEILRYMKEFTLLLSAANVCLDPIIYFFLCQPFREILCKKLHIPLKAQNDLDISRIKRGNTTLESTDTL
Description: Inhibition of fluorescent antagonist binding to human P2Y14R expressed in CHO cells preincubated for 30 mins followed by 6-amino-9-(2-carboxy-4-((6-(4-(4-(4-(4-(3-carboxy 6-(4-(trifluoromethyl)phenyl)naphthalen-1-yl)phenyl)piperidin-1-yl)butyl)-1H-1,2,3-triazol-1-yl)hexyl)carbamoyl)phenyl)-3-iminio-5-sulfo-3H-xanthene-4-sulfonate addition and measured after 30 mins by BD FACSCalibur flow cytometry analysis

[2] = Distribution coefficient, logD of compound at pH 7.4 by HPLC analysis; format: physicochemical; settings: octanol/water
[3] = target: Sigma non-opioid intracellular receptor 1 (Homo sapiens, UniProt Q99720); experiment: Inhibition of sigma 1 receptor (unknown origin) assessed as binding constant
Sigma non-opioid intracellular receptor 1, sequence (Q99720 whole entry): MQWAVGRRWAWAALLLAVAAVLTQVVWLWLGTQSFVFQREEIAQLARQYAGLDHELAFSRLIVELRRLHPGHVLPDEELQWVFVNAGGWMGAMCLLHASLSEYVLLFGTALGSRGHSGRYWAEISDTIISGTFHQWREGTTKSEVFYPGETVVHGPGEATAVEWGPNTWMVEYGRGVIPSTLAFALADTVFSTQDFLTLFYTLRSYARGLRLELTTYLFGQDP

[4] = target: Sigma intracellular receptor 2 (Homo sapiens, UniProt Q5BJF2); experiment: Inhibition of sigma 2 receptor (unknown origin) assessed as binding constant
Sigma intracellular receptor 2, sequence (Q5BJF2 whole entry): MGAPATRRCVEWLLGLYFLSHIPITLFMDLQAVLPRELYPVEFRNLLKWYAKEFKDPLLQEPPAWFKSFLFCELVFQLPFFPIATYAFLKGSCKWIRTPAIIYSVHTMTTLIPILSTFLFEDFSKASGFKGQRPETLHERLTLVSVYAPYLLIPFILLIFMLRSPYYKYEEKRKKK

[5] = target: D(1B) dopamine receptor (Homo sapiens, UniProt P21918); experiment: Inhibition of dopamine D5 receptor (unknown origin) assessed as binding constant
D(1B) dopamine receptor, sequence (P21918 whole entry): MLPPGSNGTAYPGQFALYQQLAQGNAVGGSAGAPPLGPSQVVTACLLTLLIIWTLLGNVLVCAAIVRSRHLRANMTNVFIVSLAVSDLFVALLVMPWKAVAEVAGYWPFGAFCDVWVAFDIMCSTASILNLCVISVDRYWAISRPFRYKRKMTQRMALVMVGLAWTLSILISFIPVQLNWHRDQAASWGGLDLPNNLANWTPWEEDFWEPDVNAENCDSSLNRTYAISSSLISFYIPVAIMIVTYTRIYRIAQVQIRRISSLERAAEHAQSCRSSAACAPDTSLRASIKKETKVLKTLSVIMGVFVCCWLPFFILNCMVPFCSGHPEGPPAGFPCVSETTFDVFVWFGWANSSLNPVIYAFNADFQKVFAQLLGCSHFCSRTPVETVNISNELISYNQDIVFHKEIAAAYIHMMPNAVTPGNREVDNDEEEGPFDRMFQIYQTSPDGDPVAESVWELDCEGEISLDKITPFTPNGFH

[6] = Aqueous solubility of the compound at pH 4
[7] = Aqueous solubility of the compound at pH 7.4
[8] = target: Beta-3 adrenergic receptor (Homo sapiens, UniProt P13945); experiment: Inhibition of adrenergic beta 3 receptor (unknown origin) assessed as binding constant
Beta-3 adrenergic receptor, sequence (P13945 whole entry): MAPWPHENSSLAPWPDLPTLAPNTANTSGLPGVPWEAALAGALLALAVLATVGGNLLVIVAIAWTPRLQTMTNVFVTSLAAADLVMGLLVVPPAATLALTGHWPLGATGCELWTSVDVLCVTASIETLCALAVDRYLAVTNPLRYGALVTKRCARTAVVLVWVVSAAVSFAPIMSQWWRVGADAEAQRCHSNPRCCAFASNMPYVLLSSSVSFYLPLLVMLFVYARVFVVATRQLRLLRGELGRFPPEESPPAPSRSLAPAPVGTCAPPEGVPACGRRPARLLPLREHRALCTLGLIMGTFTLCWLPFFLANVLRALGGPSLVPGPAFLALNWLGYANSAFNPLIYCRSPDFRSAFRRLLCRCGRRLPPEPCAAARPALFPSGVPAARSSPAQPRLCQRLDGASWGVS

[9] = target: T2, liver carboxylesterase (Sus scrofa, UniProt Q29550); experiment: Stability of the compound in aqueous medium at pH 7.4 assessed as half life in presence of porcine liver esterase; format: physicochemical; settings: pig
T2 sequence (Q29550 whole entry): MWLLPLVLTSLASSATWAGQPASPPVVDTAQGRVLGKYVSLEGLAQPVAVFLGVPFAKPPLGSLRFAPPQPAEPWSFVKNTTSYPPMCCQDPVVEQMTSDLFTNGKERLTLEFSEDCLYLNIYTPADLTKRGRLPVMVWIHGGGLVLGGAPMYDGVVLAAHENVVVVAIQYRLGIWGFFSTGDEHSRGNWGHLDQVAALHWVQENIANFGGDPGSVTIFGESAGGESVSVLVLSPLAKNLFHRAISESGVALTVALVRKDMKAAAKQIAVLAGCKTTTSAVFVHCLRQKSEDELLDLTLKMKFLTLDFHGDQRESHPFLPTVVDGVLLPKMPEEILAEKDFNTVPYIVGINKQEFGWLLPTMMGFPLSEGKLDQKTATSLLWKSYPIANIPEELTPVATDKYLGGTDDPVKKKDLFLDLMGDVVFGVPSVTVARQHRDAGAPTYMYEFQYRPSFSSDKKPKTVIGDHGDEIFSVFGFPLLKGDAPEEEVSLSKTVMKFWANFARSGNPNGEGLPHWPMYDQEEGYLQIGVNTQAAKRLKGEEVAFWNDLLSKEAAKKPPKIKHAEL

[10] = Plasma protein binding in rat assessed as compound remaining at 5 hrs; format: ADME, cell-free
[11] = Plasma protein binding in human assessed as bound fraction; format: ADME, cell-free
[12] = Plasma protein binding in mouse assessed as compound remaining at 5 hrs; format: ADME, cell-free
[13] = target: Translocator protein (Homo sapiens, UniProt P30536); experiment: Inhibition of TSPO receptor (unknown origin) assessed as binding constant
Translocator protein, sequence (P30536 whole entry): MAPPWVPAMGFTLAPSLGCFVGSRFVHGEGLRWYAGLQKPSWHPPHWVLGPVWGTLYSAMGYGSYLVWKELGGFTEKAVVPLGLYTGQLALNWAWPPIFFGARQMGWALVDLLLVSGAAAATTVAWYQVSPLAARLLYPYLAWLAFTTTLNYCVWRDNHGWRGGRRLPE

[14] = target: T3, P2Y purinoceptor 14 (Mus musculus, UniProt Q9ESG6); experiment: Inhibition of fluorescent antagonist binding to mouse P2Y14R expressed in HEK293 cells preincubated for 30 mins followed by addition of 6-amino-9-(2-carboxy-4-((6-(4-(4-(4-(4-(3-carboxy-6-(4-(trifluoromethyl)phenyl)naphthalen-1-yl)phenyl)piperidin-1-yl)butyl)-1H-1,2,3-triazol-1-yl)hexyl)carbamoyl)phenyl)-3-iminio-5-sulfo-3H-xanthene-4-sulfonate incubated for 30 mins by BD FACSCalibur flow …; format: cell-based
T3 sequence (Q9ESG6 whole entry): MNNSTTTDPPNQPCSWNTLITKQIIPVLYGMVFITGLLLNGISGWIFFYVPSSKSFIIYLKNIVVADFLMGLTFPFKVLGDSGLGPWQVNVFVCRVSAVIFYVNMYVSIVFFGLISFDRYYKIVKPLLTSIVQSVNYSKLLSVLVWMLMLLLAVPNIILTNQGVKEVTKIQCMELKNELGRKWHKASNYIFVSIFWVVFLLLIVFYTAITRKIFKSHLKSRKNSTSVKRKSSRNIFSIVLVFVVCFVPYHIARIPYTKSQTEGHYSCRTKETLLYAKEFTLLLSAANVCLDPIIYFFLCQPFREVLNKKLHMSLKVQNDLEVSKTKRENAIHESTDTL

Structure (SMILES): CCOC(=O)N1C[C@H]2C[C@@H]1C[C@@H]2c1ccc(-c2cc(C(=O)O)cc3cc(-c4ccc(C(F)(F)F)cc4)ccc23)cc1
- IC50 [1]: 442 nM

Structure (SMILES): CC(=O)N1C[C@@H]2C[C@H]1C[C@H]2c1ccc(-c2cc(C(=O)O)cc3cc(-c4ccc(C(F)(F)F)cc4)ccc23)cc1
- logD [2]: 0.55
- IC50 [1]: 64.1 nM
- Ki [3]: 4200 nM
- Ki [4]: 1700 nM
- Ki [5]: > 1000 nM

Structure (SMILES): O=C(O)c1cc(-c2ccc([C@H]3C[C@H]4C[C@@H]3CN4)cc2)c2ccc(-c3ccc(C(F)(F)F)cc3)cc2c1 (racemic)
- solubility ([6]; buffer): 2.73 µg/mL (≈ 5.6 µM)
- logD ([2]; read-out: logD): 2
- Ki [4]: 650 nM
- solubility ([7]; buffer): 0.47 µg/mL (≈ 0.964 µM)
- Ki [8]: > 1000 nM

Structure (SMILES): O=C(O)c1cc(-c2ccc(C34CCNCC3C4)cc2)c2ccc(-c3ccc(C(F)(F)F)cc3)cc2c1 (racemic)
- solubility ([6]; aqueous medium): 1.32 µg/mL (≈ 2.71 µM)
- logD ([2]; read-out: logD): 2.4
- IC50 [1]: 45.5 nM
- solubility ([7]; buffer): 0.17 µg/mL (≈ 0.349 µM)

Structure (SMILES): CC1CNCCC1c1ccc(-c2cc(C(=O)O)cc3cc(-c4ccc(C(F)(F)F)cc4)ccc23)cc1 (stereo not given)
- logD ([2]; read-out: logD): 2.8

Structure (SMILES): CN(C)C(=O)COC(=O)c1cc(-c2ccc([C@@H]3C[C@@H]4C[C@H]3NC4=O)cc2)c2ccc(-c3ccc(C(F)(F)F)cc3)cc2c1
- Ki [3]: 6900 nM
- half-life [9]: > 72 h
- Fu [10]: 0%
- PPB [11]: 99.79%
- Fu [12]: 0%

Structure (SMILES): CC(=O)N1C[C@@H]2C[C@H]1C[C@H]2c1ccc(-c2cc(C(=O)O)cc3cc(-c4ccc(C(F)(F)F)cc4)ccc23)cc1 (racemic)
- solubility ([6]; buffer): 0.13 µg/mL (≈ 0.245 µM)
- logD ([2]; read-out: logD): 0.92
- solubility ([7]; buffer): 2.53 µg/mL (≈ 4.78 µM)

Structure (SMILES): O=C(O)c1cc(-c2ccc([C@]3(O)C[C@H]4CC[C@@H]3CN4)cc2)c2ccc(-c3ccc(C(F)(F)F)cc3)cc2c1 (racemic)
- logD ([2]; read-out: logD): 0.74
- IC50 [1]: 114 nM

Structure (SMILES): O=C(O)c1cc(-c2ccc(C34CCN(CC3)CC4)cc2)c2ccc(-c3ccc(C(F)(F)F)cc3)cc2c1
- solubility ([6]; buffer): 1.5 µg/mL (≈ 2.99 µM)
- logD ([2]; read-out: logD): 4.2
- solubility ([7]; buffer): 0.55 µg/mL (≈ 1.1 µM)

Structure (SMILES): O=C(O)c1cc(-c2ccc([C@H]3C[C@H]4C[C@@H]3NC4=O)cc2)c2ccc(-c3ccc(C(F)(F)F)cc3)cc2c1
- Ki [3]: 2600 nM
- Ki [13]: 1400 nM
- Ki [4]: 1400 nM
- Ki [8]: > 1000 nM
- Ki [5]: > 1000 nM

Structure (SMILES): O=C(O)c1cc(-c2ccc(C34CCNCC3C4(F)F)cc2)c2ccc(-c3ccc(C(F)(F)F)cc3)cc2c1 (racemic)
- logD ([2]; read-out: logD): 2.7

Structure (SMILES): CC1CC(c2ccc(-c3cc(C(=O)O)cc4cc(-c5ccc(C(F)(F)F)cc5)ccc34)cc2)CCN1 (stereo not given)
- logD ([2]; read-out: logD): 2.1

Structure (SMILES): N[C@H]1C[C@@H](C(=O)O)[C@H](c2ccc(-c3cc(C(=O)O)cc4cc(-c5ccc(C(F)(F)F)cc5)ccc34)cc2)C1
- logD ([2]; read-out: logD): -0.57

Structure (SMILES): O=C(O)c1cc(-c2ccc(C3=CC4CCC(C3)N4)cc2)c2ccc(-c3ccc(C(F)(F)F)cc3)cc2c1 (racemic)
- logD ([2]; read-out: logD): 2.3

Structure (SMILES): O=C(O)c1cc(-c2ccc([C@@H]3CCN[C@@H]4C[C@@H]43)cc2)c2ccc(-c3ccc(C(F)(F)F)cc3)cc2c1 (racemic)
- solubility ([6]; buffer): 0.24 µg/mL (≈ 0.492 µM)
- logD ([2]; read-out: logD): 1.8
- solubility ([7]; buffer): 0.05 µg/mL (≈ 0.103 µM)

Structure (SMILES): CC(=O)N1C[C@H]2C[C@@H]1C[C@@H]2c1ccc(-c2cc(C(=O)O)cc3cc(-c4ccc(C(F)(F)F)cc4)ccc23)cc1
- logD ([2]; read-out: logD): 0.92
- IC50 [1]: 99.3 nM

Structure (SMILES): O=C(O)c1cc(-c2ccc([C@@H]3C[C@H]4CN[C@@H]3C4)cc2)c2ccc(-c3ccc(C(F)(F)F)cc3)cc2c1
- logD ([2]; read-out: logD): 2.1
- IC50 [14]: 90.9 nM
- Ki [4]: 1000 nM

Structure (SMILES): COC1(c2ccc(-c3cc(C(=O)O)cc4cc(-c5ccc(C(F)(F)F)cc5)ccc34)cc2)[C@H]2CC[C@H]1CNC2 (stereo not given in full)
- solubility ([6]; buffer): 1.81 µg/mL (≈ 3.4 µM)
- logD ([2]; read-out: logD): 1.4
- IC50 [1]: 44.6 nM
- solubility ([7]; aqueous medium): 0.88 µg/mL (≈ 1.66 µM)
